# Reference: patent publication US20230256111A1, “C[…] ADC OR AN AOC COMPRISING A VHH, AND A SAPONIN OR A LIGAND-SAPONIN CONJUGATE” (SAPREME TECHNOLOGIES B.V., priority 2020, published 2023)
# Assays:
# Assay in all cases: Cell viability (MTS) assay, targeted toxin mediated cell killing
# Assay type in all cases: cell-based, human
# Conditions in all cases: read-out: IC50, 1500 nM SO1861, toxin or toxin conjugate titrated + 1500 nM unconjugated SO1861
# JIMT-1 cells = system: JIMT-1 cells
# Experimental: (§1) Cells were seeded in a 96 well plate at 5.000-10.000 c/w in 100 μL/well and incubated overnight at 37° C. […] The media was removed from the cell culture plate and replaced by 180 μL culture media, followed by the addition of 20 μL treatment-mix/well. […] In the case that endosomal acidification inhibitors (chloroquine (Sigma Aldrich) or bafilomycin A1 (Enzo Life Sciences)) were used, the cell culture media in step 1 of treatment was replaced by 180 μL media containing 1 pM chloroquine or 0.2 pM bafilomycin A1. The plate was incubated for 1 hour at 37° C., before the 10× treatment-mix samples were added.
# (§2) After treatment the cells were incubated for 72 hr at 37° C. before the cell viability was determined by a MTS-assay, performed according to the manufacturer's instruction (CellTiter 96® AQueous One Solution Cell Proliferation Assay, Promega). Briefly, the MTS solution was diluted 20× in DMEM without phenol red (PAN-Biotech GmbH) supplemented with 10% FBS (PAN-Biotech GmbH). […] Subsequently, the optical density at 492 nm was measured on a Thermo Scientific Multiskan FC plate reader (Thermo Scientific). For quantification the background signal of ‘medium only’ wells was subtracted from all other wells, before the ratio of untreated/treated cells was calculated, by dividing the background corrected signal of untreated wells over the background corrected signal of the treated wells.
# HeLa cells = system: HeLa cells
# Experimental: as §1, §2
# CaSki cells = system: CaSki cells
# Experimental: as §1, §2
substance,measurement,setting,value
Saporin,IC50,JIMT-1 cells,0.03 nM
same,IC50,HeLa cells,0.03 nM
same,IC50,CaSki cells,0.015 nM
